In PubChem BioAssay AID2742 (NMMLSC, 2010):
The source made the active and inactive calls.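 The calls were made as follows: active = fitted half-maximal concentration for changing background-corrected GFP signal at or below a set limit; inactive = the rest.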

Experiment: modulators of MEP2-GFP levels in yeast, dose response, S. cerevisiae, flow cytometry GFP, MLPCN hits (AID 2742);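 also: GFP tag reports level of MEP2 protein as a downstream target of TOR signalling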
Conditions: S. cerevisiae MEP2-GFP strain, flow cytometry fluorescence, 3 h; at 33 µM (top of the series)

Compound | GFP fluorescence (kMESF), higher = increase
CC[C@@]1(c2ccccc2OC)ON(c2ccccc2C(F)(F)F)C1=O | 3.17 kMESF (inactive)
CCN1/C(=C/C=C/c2sc3ccccc3[n+]2CC)Sc2ccccc21 | 105 kMESF (inactive)
CC1=NOC(=O)/C1=C\c1ccc(-c2cc(Cl)ccc2Cl)o1 | 4.04 kMESF (inactive)
O=C(C#Cc1cccc([N+](=O)[O-])c1)c1ccccc1 | 3.98 kMESF (inactive)
O=C(Oc1cccc2cccnc12)c1ccc(Br)o1 | 1.82 kMESF (inactive)
CCn1c(/C=C/c2ccc([N+](=O)[O-])o2)nc2ccccc2c1=O | 2.26 kMESF (inactive)
COC(=O)CCC(=O)OC1(C)C(=O)C2=COC(c3ccc(OC)cc3)=CC2=C(Br)C1=O (configuration not stated) | 0.26 kMESF (inactive)
Cc1cc(C(=O)Nc2nc(-c3ccccn3)cs2)ccc1[N+](=O)[O-] | 4.48 kMESF (inactive)
CCc1ccc(OCC(=O)NNC(=S)NC(=O)C2CC2)c(Br)c1 | 5.6 kMESF (inactive)
Cc1ccc2[nH]c(C)c(/C=C/c3cc[n+](C)cc3)c2c1 | 4.54 kMESF (inactive)
Cc1cccc(NC(c2ccc(C)s2)c2ccc3ccc(C)nc3c2O)n1 (configuration not stated) | 8.62 kMESF (inactive)
CCCCc1ccc(/C=C2/C(=O)ON=C2c2ccccc2)s1 | 2.26 kMESF (inactive)
Cc1ccccc1C(=O)NNC(=S)NC(=O)c1ccc(Cl)cc1Cl | 6.21 kMESF (inactive)
Cc1cc(=O)n2c3c(sc2n1)C(=O)N(Cc1ccccc1)C3=O | 2.89 kMESF (inactive)
CC(Oc1ccc(Cl)cc1)C(=O)NNC(=S)NC(=O)c1ccco1 (configuration not stated) | 5.05 kMESF (inactive)
O=C1c2cccc3c([N+](=O)[O-])ccc(c23)C(=O)N1CCc1ccccn1 | 5.48 kMESF (inactive)
O=C(Nc1nc(-c2ccccn2)cs1)c1cc2ccccc2o1 | 5.47 kMESF (inactive)
CC(=O)SC(C[N+](=O)[O-])c1cn(C(C)=O)c2ccccc12 (configuration not stated) | 6.37 kMESF (inactive)
CCCc1ccc(OCC(=O)NNC(=S)NC(=O)c2ccco2)cc1 | 9.05 kMESF (inactive)
N=C1S/C(=C\c2ccco2)C(=O)N1c1nccs1 | 4.56 kMESF (inactive)
O=C(Nc1nnc(-c2ccc(F)cc2)o1)c1cc(Cl)sc1Cl | 3.38 kMESF (inactive)

Compound | GFP fluorescence (kMESF), higher = increase
Cc1c(NC2=C(Cl)C(=O)N(c3ccccc3Cl)C2=O)c(=O)n(-c2ccccc2)n1C | 1.97 kMESF (inactive)
CC(=O)N(C(C)=O)c1ncnc2c1c(-c1ccc(Cl)cc1)nn2C(C)(C)C | 1.85 kMESF (inactive)
Oc1c(C(Nc2cccc(C(F)(F)F)c2)c2ccncc2)ccc2cccnc12 (configuration not stated) | 4.71 kMESF (inactive)
COc1ccc(C(=O)NNC(=S)NC(=O)/C=C/c2cccs2)cc1 | 5.04 kMESF (inactive)
CC(=O)Oc1cccc(N2C(=O)c3cccc4c([N+](=O)[O-])ccc(c34)C2=O)c1 | 7.84 kMESF (inactive)
CN1CCN(C(c2ccc(C(F)(F)F)cc2)c2ccc3cccnc3c2O)CC1 (configuration not stated) | 4.86 kMESF (inactive)
O=C(NC(=S)NNC(=O)c1cnccn1)c1ccc(Cl)cc1 | 3.51 kMESF (inactive)
O=S1(=O)C=C(Sc2nc3ccccc3s2)c2ccccc21 | 5.18 kMESF (inactive)
O=C1ON=C(c2ccccc2)/C1=C/c1ccco1 | 4.24 kMESF (inactive)
CCCc1cc(=O)oc2cc(C)cc(OCC(=O)NC3CC3)c12 | 1.67 kMESF (inactive)
COc1ccc2c(/C=C/c3cc[n+](C)cc3)c[nH]c2c1 | 4.86 kMESF (inactive)
N#Cc1nccnc1S(=O)(=O)c1cccs1 | 2.29 kMESF (inactive)
CC[C@]1(c2ccccc2C)ON(c2ccccc2C(F)(F)F)C1=O | 1.97 kMESF (inactive)
CC1(c2ccccc2)ON(c2ccccc2C(F)(F)F)C1=O (configuration not stated) | 4.18 kMESF (inactive)
CC1=NNC(=O)/C1=C\c1cn(-c2ccccc2)nc1-c1cccs1 | 3.14 kMESF (inactive)
O=[N+]([O-])c1cc(F)c2cccnc2c1O | 5.96 kMESF (inactive)
c1ccc(-c2csc(Nc3cccnc3)n2)nc1 | 1.4 kMESF (inactive)
CCCc1nnc(NC(=O)c2c(O)c3cccc4c3n(c2=O)CCC4)s1 | -1.47 kMESF (inactive)
O=C(Nc1ccc(Cl)cc1)ON=C1CCCC1 | 4.17 kMESF (inactive)
CCCCC1OC23CCCCC2C(C#N)(C(=N)O3)C1(C#N)C#N (configuration not stated) | 3.37 kMESF (inactive)
O=C(OCn1ncc(Br)c(Br)c1=O)c1ccc(F)cc1 | 5.15 kMESF (inactive)
